Data from patent publication US20150374646A1, “TREATMENT OF CANCER AND OTHER CONDITIONS USING A TRANSCRIPTION FACTOR MODULATOR” (C & C BIOPHARMA, LLC, priority 2013, published 2015).

Experiments:
Assay in all cases: Cancer cell line growth inhibition, CellTiter-Glo (Example 3)
Format in all cases: cell-based
A498 = conditions: Homo sapiens, Renal, 72 hours, read-out: growth inhibition of various human cancer cell lines
Method: (§1) YT30 was tested for growth inhibition against 67 human cancer cell lines derived from diverse tissues including the National Cancer Institute human cancer cell lines (NCI-60). […] Cells in different wells were treated with various concentrations of YT30, YT86, YT88, or YT128. […] Cell viabilities were determined by the CellTiter-Glo Luminescence Cell Viability assay kit (Promega Corporation, Madison, Wis.) according to manufacturer's protocol.

A549 = conditions: Homo sapiens, Lung, 72 hours, read-out: growth inhibition of various human cancer cell lines
Method: as §1

BT-549 = conditions: Homo sapiens, Breast, 72 hours, read-out: growth inhibition of various human cancer cell lines
Method: as §1

CCRF-CEM = conditions: Homo sapiens, Leukemia, 72 hours, read-out: growth inhibition of various human cancer cell lines
Method: as §1

Caski = conditions: Homo sapiens, Ca-Ski, Cervical, 72 hours, read-out: growth inhibition of various human cancer cell lines
Method: as §1

HL60 = conditions: Homo sapiens, HL-60, Leukemia, 72 hours, read-out: growth inhibition of various human cancer cell lines
Method: as §1

HS 578T = conditions: Homo sapiens, Breast, 72 hours, read-out: growth inhibition of various human cancer cell lines
Method: as §1

HeLa = conditions: Homo sapiens, Cervical, 72 hours, read-out: growth inhibition of various human cancer cell lines
Method: as §1

K562 = conditions: Homo sapiens, Leukemia, 72 hours, read-out: growth inhibition of various human cancer cell lines
Method: as §1

MCF7 = conditions: Homo sapiens, Breast, MCF-7, 72 hours, read-out: growth inhibition of various human cancer cell lines
Method: as §1

MDA-MB-435 = conditions: Homo sapiens, Breast, 72 hours, read-out: growth inhibition of various human cancer cell lines
Method: as §1

MDA-MB-468 = conditions: Homo sapiens, Breast, 72 hours, read-out: growth inhibition of various human cancer cell lines
Method: as §1

MDA-MB231 = conditions: Homo sapiens; Breast, MDA-MB-231; 72 hours; read-out: growth inhibition of various human cancer cell lines
Method: as §1

MOLT-4 = conditions: Homo sapiens, Leukemia, 72 hours, read-out: growth inhibition of various human cancer cell lines
Method: as §1

OVCAR-3 = conditions: Homo sapiens, Ovarian, 72 hours, read-out: growth inhibition of various human cancer cell lines
Method: as §1

OVCAR-4 = conditions: Homo sapiens, Ovarian, 72 hours, read-out: growth inhibition of various human cancer cell lines
Method: as §1

OVCAR-5 = conditions: Homo sapiens, Ovarian, 72 hours, read-out: growth inhibition of various human cancer cell lines
Method: as §1

SF-268 = conditions: Homo sapiens, CNS, 72 hours, read-out: growth inhibition of various human cancer cell lines
Method: as §1

SF-295 = conditions: Homo sapiens, CNS, 72 hours, read-out: growth inhibition of various human cancer cell lines
Method: as §1

SF-539 = conditions: Homo sapiens, CNS, 72 hours, read-out: growth inhibition of various human cancer cell lines
Method: as §1

SN12C = conditions: Homo sapiens, Renal, 72 hours, read-out: growth inhibition of various human cancer cell lines
Method: as §1

SNB-19 = conditions: Homo sapiens, CNS, 72 hours, read-out: growth inhibition of various human cancer cell lines
Method: as §1

SR = conditions: Homo sapiens, Leukemia, 72 hours, read-out: growth inhibition of various human cancer cell lines
Method: as §1

T-47D = conditions: Homo sapiens, T47D, Breast, 72 hours, read-out: growth inhibition of various human cancer cell lines
Method: as §1

TK-10 = conditions: Homo sapiens, Renal, 72 hours, read-out: growth inhibition of various human cancer cell lines
Method: as §1

U251 = conditions: Homo sapiens, U-251, CNS, 72 hours, read-out: growth inhibition of various human cancer cell lines
Method: as §1

UO-31 = conditions: Homo sapiens, Renal, 72 hours, read-out: growth inhibition of various human cancer cell lines
Method: as §1

siHa = conditions: Homo sapiens, Cervical, 72 hours, read-out: growth inhibition of various human cancer cell lines
Method: as §1

786-0 = conditions: Homo sapiens, Renal, 72 hours, read-out: growth inhibition of various human cancer cell lines
Method: as §1

NCI/ADR-RES = conditions: Homo sapiens, Breast, 72 hours, read-out: growth inhibition of various human cancer cell lines
Method: as §1

IC50 (A498) [µM] | IC50 (A549) [µM] | IC50 (BT-549) [µM] | IC50 (CCRF-CEM) [µM] | IC50 (Caski) [µM] | IC50 (HL60) [µM] | IC50 (HS 578T) [µM] | IC50 (HeLa) [µM] | IC50 (K562) [µM] | IC50 (MCF7) [µM] | IC50 (MDA-MB-435) [µM] | IC50 (MDA-MB-468) [µM] | IC50 (MDA-MB231) [µM] | IC50 (MOLT-4) [µM] | IC50 (OVCAR-3) [µM] | IC50 (OVCAR-4) [µM] | IC50 (OVCAR-5) [µM] | IC50 (SF-268) [µM] | IC50 (SF-295) [µM] | IC50 (SF-539) [µM] | SMILES | further results
9.55 | 10.9 | 13.5 | 3.17 | 11.3 | 4.81 | 8.85 | 6.74 | 5.64 | 5.86 | 8.31 | 7.04 | 5.81 | 3.09 | 7.2 | 14.3 | 5.99 | 14.9 | 7.41 | 7.76 | Nc1ccccc1NC(=O)CCCCCNC(=O)c1cc2ccccc2[nH]1 [YT86] | IC50 (SN12C): 8 µM; IC50 (SNB-19): 14.2 µM; IC50 (SR): 6.4 µM; IC50 (T-47D): 12.5 µM; IC50 (TK-10): 17.2 µM; IC50 (U251): 4.47 µM; IC50 (UO-31): 7.51 µM; IC50 (siHa): 8.78 µM
7.46 | 12.8 | 9.14 | 4.24 | 10.9 | 5.86 | 8.39 | 6.58 | 5.03 | 8.52 | 9.74 | 11.2 | 6.75 | 5.08 | 6.91 | 13.6 | 6.87 | 13.4 | 8.61 | 7.61 | Nc1ccccc1NC(=O)CCCCCCNC(=O)c1cc2ccccc2[nH]1 [YT128] | IC50 (786-0): 9.47 µM; IC50 (NCI/ADR-RES): 14.6 µM; IC50 (SN12C): 7.11 µM; IC50 (SNB-19): 13.8 µM; IC50 (SR): 5.96 µM; IC50 (T-47D): 12.6 µM; IC50 (TK-10): 12.1 µM; IC50 (U251): 5 µM; IC50 (UO-31): 6.58 µM; IC50 (siHa): 9.7 µM
